Laboratory results reported in patent US9458447B2, “MPHOSPH1 peptides and vaccines including the same” (OncoTherapy Science, Inc., priority 2011, dated 2016).
Where no end group is shown, it is not given here.

What was measured:
Type in all cases: cell-based, human
peptide-pulsed T2 cells = experiment: IFN-gamma ELISPOT assay of CTLs induced with peptide-pulsed DCs; settings: CTLs from HLA-A*0201 positive donor after 3rd peptide stimulation, day 21; peptide-pulsed T2 vs control wells
Text: Monocyte-derived dendritic cells (DCs) were used as antigen-presenting cells to induce cytotoxic T lymphocyte (CTL) that responses against peptides presented on human leukocyte antigen (HLA). DCs were generated in vitro as described elsewhere (Nakahara S et al., Cancer Res 2003 Jul. 15, 63(14): 4112-8). Specifically, peripheral blood mononuclear cells isolated from a normal volunteer (HLA-A*0201 positive) by Ficoll-Paque plus (Pharmacia) solution were separated by adherence to a plastic tissue culture dish (Becton Dickinson) so as to enrich them as the monocyte fraction. The monocyte-enriched population was cultured in the presence of 1000 U/ml of granulocyte-macrophage colony-stimulating factor (R&D System) and 1000 U/ml of interleukin (IL)-4 (R&D System) in AIM-V Medium (Invitrogen) containing 2% heat-inactivated autologous serum (AS). After 7 days of culture, the cytokine-induced DCs were pulsed with 20 microgram/ml of each of the synthesized peptides in the presence of 3 microgram/ml of beta 2-microglobulin for 3 hr at 37 degrees C. in AIM-V Medium. The generated cells appeared to express DC-associated molecules, such as CD80, CD83, CD86 and HLA class II, on their cell surfaces (data not shown). These peptide-pulsed DCs were then inactivated by X ray-irradiated (20 Gy) and mixed at a 1:20 ratio with autologous CD8^+ T cells, obtained by positive selection with CD8 Positive Isolation Kit (Dynal). These cultures were set up in 48-well plates (Corning); each well contained 1.5×10^4 peptide-pulsed DCs, 3×10^5 CD8^+ T cells and 10 ng/ml of IL-7 (R&D System) in 0.5 ml of AIM-V/2% AS medium. Three days later, these cultures were supplemented with IL-2 (CHIRON) to a final concentration of 20 IU/ml. On day 7 and 14, the T cells were further stimulated with the autologous peptide-pulsed DCs. The DCs were prepared each time by the same way described above. CTL was tested against peptide-pulsed T2 cells after the 3rd round of peptide stimulation on day 21 (Tanaka H et al., Br J Cancer 2001 Jan. 5, 84(1): 94-9; Umano Y et al., Br J Cancer 2001 Apr. 20, 84(8): 1052-7; Uchida N et al., Clin Cancer Res 2004 Dec. 15, 10(24): 8577-86; Suda T et al., Cancer Sci 2006 May, 97(5): 411-9; Watanabe T et al., Cancer Sci 2005 August, 96(8): 498-506).
(§1) To examine specific CTL activity, interferon(IFN)-gamma enzyme-linked immunospot (ELISPOT) assay and IFN-gamma enzyme-linked immunosorbent assay (ELISA) were performed. Peptide-pulsed T2 (1×10^4/well) was prepared as stimulator cells. Cultured cells in 48-well plate, CTL lines and CTL clones were used as responder cells. IFN-gamma ELISPOT assay and IFN-gamma ELISA assay were performed under manufacture procedure.

[1] = system: T2 cells pulsed with the corresponding peptide; experiment: IFN-gamma ELISA of established CTL lines; settings: T2 cells pulsed with corresponding peptide vs T2 cells without peptide pulse
Description: CTLs were expanded in culture using the method similar to the one described by Riddell et al. (Walter E A et al., N Engl J Med 1995 Oct. 19, 333(16): 1038-44; Riddell S R et al., Nat Med 1996 February, 2(2): 216-23). A total of 5×10^4 CTLs were suspended in 25 ml of AIM-V/5% AS medium with 2 kinds of human B-lymphoblastoid cell lines, inactivated by Mitomycin C, in the presence of 40 ng/ml of anti-CD3 monoclonal antibody (Pharmingen). One day after initiating the cultures, 120 IU/ml of IL-2 were added to the cultures. The cultures were fed with fresh AIM-V/5% AS medium containing 30 IU/ml of IL-2 on days 5, 8 and 11 (Tanaka H et al., Br J Cancer 2001 Jan. 5, 84(1): 94-9; Umano Y et al., Br J Cancer 2001 Apr. 20, 84(8): 1052-7; Uchida N et al., Clin Cancer Res 2004 Dec. 15, 10(24): 8577-86; Suda T et al., Cancer Sci 2006 May, 97(5): 411-9; Watanabe T et al., Cancer Sci 2005 August, 96(8): 498-506).
as §1

T2 cells = experiment: Cytotoxic activity of CTL clone, 51Cr-release, MPHOSPH1-negative control; settings: express HLA-A*0201 but not MPHOSPH1
Description: (§2) The CTL clones were examined for their ability to kill the tumor cells endogenously expressing MPHOSPH1 and HLA-A*0201. Target cells (tumor cell lines) were labeled with 100 micro-Ci of Na2^51CrO4 (Perkin Elmer) for 1 hr in CO2 incubator. Peptide-pulsed target cells were prepared by incubating the cells with 20 microgram/ml of the peptide for 16 hrs before labeling. Target cells labeled with ^51Cr were rinsed and mixed with CTL clones in a final volume of 200 microliter in 96-well round-bottom microtiter plates. The plates were centrifuged (4 minutes at 800 rpm) to increase cell-to-cell contact and placed into CO2 incubator. After 4 hrs of incubation, 50 microliter of the supernatant was collected from each well and the radioactivity was determined with a gamma counter (PerkinElmer). The percentage of specific cytotoxicity was determined by calculating the percentage of specific ^51Cr-release by the following formula: {(cpm of the test sample release−cpm of the spontaneous release)/(cpm of the maximum release−cpm of the spontaneous release)}×100. Spontaneous release was determined by incubating the target cells alone, in the absence of effector cells. The maximum release was obtained by incubating the targets with 1N HCl. All measurements were done in duplicate.

UMUC-3 cells = experiment: Cytotoxic activity of CTL clone, 51Cr-release; settings: express both MPHOSPH1 and HLA-A*0201
Description: as §2

MKN45 cells = experiment: Cytotoxic activity of CTL clone, 51Cr-release, HLA-A*0201-negative control; settings: express MPHOSPH1 but not HLA-A*0201
Description: as §2

[2] = system: T2 cells pulsed with corresponding peptide; experiment: IFN-gamma ELISA of CTL clones established by limiting dilution
Description: The dilutions were made to have 0.3, 1, and 3 CTLs/well in 96 round-bottomed micro titer plate (Nalge Nunc International). CTLs were cultured with 1×10^4 cells/well of 2 kinds of human B-lymphoblastoid cell lines, 30 ng/ml of anti-CD3 antibody, and 125 U/ml of IL-2 in a total of 150 microliter/well of AIM-V Medium containing 5% AS. 50 microliter/well of IL-2 were added to the medium 10 days later to reach a final concentration of 125 U/ml IL-2. CTL activity was tested on the 14th day, and CTL clones were expanded using the same method as described above (Uchida N et al., Clin Cancer Res 2004 Dec. 15, 10(24): 8577-86; Suda T et al., Cancer Sci 2006 May, 97(5): 411-9; Watanabe T et al., Cancer Sci 2005 August, 96(8): 498-506).
as §1

Substance	Peptide specific CTL activity (IFN-gamma production) by IFN-gamma ELISPOT (peptide-pulsed T2 cells)	IFN-gamma production of CTL lines by IFN-gamma ELISA [1]	Cytotoxic activity of CTL clone (T2 cells)	Cytotoxic activity of CTL clone (UMUC-3 cells)	Cytotoxic activity of CTL clone (MKN45 cells)	IFN-gamma production from CTL clones by IFN-gamma ELISA [2]
LLTLgKCINV (LLTLGKCINV; not fully specified (residue 5); printed as LLTLgKCINV) [SEQ ID NO: 79]	potent IFN-gamma production as compared to the control wells	potent IFN-gamma production against T2 cells pulsed with the corresponding peptide				
YIYDLFVPVS [SEQ ID NO: 120, YIYDLFVPVS]			no significant cytotoxic activity was detected	potent cytotoxic activity	no significant cytotoxic activity was detected	
GLRAFLLTI (a peptide derived from MPHOSPH1) [SEQ ID NO: 64]	potent IFN-gamma production as compared to the control wells	potent IFN-gamma production against T2 cells pulsed with the corresponding peptide				Potent IFN-gamma production was observed
KLICnETVEV (KLICNETVEV; not fully specified (residue 5); printed as KLICnETVEV) [SEQ ID NO: 77]	potent IFN-gamma production as compared to the control wells	potent IFN-gamma production against T2 cells pulsed with the corresponding peptide				Potent IFN-gamma production was observed
YLAYdETLNV (YLAYDETLNV; not fully specified (residue 5); printed as YLAYdETLNV) [SEQ ID NO: 73]	potent IFN-gamma production as compared to the control wells	potent IFN-gamma production against T2 cells pulsed with the corresponding peptide				Potent IFN-gamma production was observed
FLLTIENEL (a peptide derived from MPHOSPH1) [SEQ ID NO: 5]	potent IFN-gamma production as compared to the control wells	potent IFN-gamma production against T2 cells pulsed with the corresponding peptide				Potent IFN-gamma production was observed
FQGCIMQPV (a peptide derived from MPHOSPH1) [SEQ ID NO: 14]	potent IFN-gamma production as compared to the control wells	potent IFN-gamma production against T2 cells pulsed with the corresponding peptide				
QLVAaLEIQL (QLVAALEIQL; not fully specified (residue 5); printed as QLVAaLEIQL) [SEQ ID NO: 103]	potent IFN-gamma production as compared to the control wells	potent IFN-gamma production against T2 cells pulsed with the corresponding peptide				
KLSNeIETAT (KLSNEIETAT; not fully specified (residue 5); printed as KLSNeIETAT) [SEQ ID NO: 97]	potent IFN-gamma production as compared to the control wells	potent IFN-gamma production against T2 cells pulsed with the corresponding peptide				
KLLDLIEDL (a peptide derived from MPHOSPH1) [SEQ ID NO: 1]	no specific IFN-gamma production was observed					
